According to US6355799B1, “Substituted benzene compounds, process for their preparation, and herbicidal and defoliant compositions containing them” (ISK Americas Incorporated, priority 1997, dated 2002):

What was measured:
Assay type in all cases: in vivo
[1] = test system: redroot pigweed (Amaranthus retroflexus, AMARE); assay: Pre-emerge test, greenhouse herbicide activity screening; conditions: rated 14 days after application, 0 = no damage, 100 = complete death
How it was run: (§1)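 Visual ratings on a 0-100 scale (0 no damage, 100 all plants dead) were taken at 14 days after treatment. Rates of 15-1000 g ai/ha in acetone, 187 l/ha, were sprayed onto soil one day after planting (pre-emerge) or onto 2-3 leaf plants with 0.25% v/v surfactant (post-emerge).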

[2] = test system: field corn (Zea mays L., var. Dekalb 535, CORN); assay: Post-emerge test, crop safety; conditions: post-emerge, 14 days after application, rating scale 0-100
How it was run: as §1

[3] = test system: upland rice (Oryza sp., var. Tebonnet, RICE); assay: Post-emerge test, crop safety; conditions: post-emerge, 14 days after application, rating scale 0-100
How it was run: as §1

[4] = test system: field corn (Zea mays L., var. Dekalb 535, CORN); assay: Pre-emerge test, crop safety; conditions: rated 14 days after application, 0 = no damage, 100 = complete death
How it was run: (§2)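 Rating: 0–100 visual injury, 14 DAA. Application: acetone, 187 l/ha, 15–1000 g ai/ha, flat-fan track sprayer with nozzle 40–45 cm above soil or canopy. Post-emerge runs used 0.25% v/v surfactant on 2–3 leaf plants.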

[5] = test system: upland rice (Oryza sp., var. Tebonnet, RICE); assay: Pre-emerge test, crop safety; conditions: rated 14 days after application, 0 = no damage, 100 = complete death
How it was run: as §2

[6] = test system: common ragweed (Ambrosia artemisizfolia L., AMBEL); assay: Pre-emerge test, greenhouse herbicide activity screening; conditions: rated 14 days after application, 0 = no damage, 100 = complete death
How it was run: as §1

[7] = test system: green foxtail (Setaria viridis, SETVI); assay: as above; conditions: rated 14 days after application, 0 = no damage, 100 = complete death
How it was run: as §1

[8] = test system: lambsquarters (Chenopodium album, CHEAL); assay: as above; conditions: rated 14 days after application, 0 = no damage, 100 = complete death
How it was run: as §1

[9] = test system: ivyleaf morningglory (Ipomoea hederacea, IPOHE); assay: as above; conditions: rated 14 days after application, 0 = no damage, 100 = complete death
How it was run: as §1

[10] = test system: large crabgrass (Digitaria sanguinalis, DIGSA); assay: as above; conditions: rated 14 days after application, 0 = no damage, 100 = complete death
How it was run: as §1

[11] = test system: johnsongrass (Sorghum halepense, SORHA); assay: as above; conditions: rated 14 days after application, 0 = no damage, 100 = complete death
How it was run: as §1

[12] = test system: sicklepod (Cassia obtusifolia, CASOB); assay: as above; conditions: rated 14 days after application, 0 = no damage, 100 = complete death
How it was run: as §1

[13] = test system: velvetleaf (Abutilon theophrasti, ABUTH); assay: as above; conditions: rated 14 days after application, 0 = no damage, 100 = complete death
How it was run: as §1

[14] = test system: barnyardgrass (Echinochloa crus-galli, ECHCG); assay: as above; conditions: rated 14 days after application, 0 = no damage, 100 = complete death
How it was run: as §1

[15] = test system: common ragweed (Ambrosia artemisizfolia L., AMBEL); assay: Post-emerge test, greenhouse herbicide activity screening; conditions: post-emerge, 14 days after application, rating scale 0-100
How it was run: (§3)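 Herbicidal damage is scored 0 (none) to 100 (complete plant death) two weeks after a simulated field spray. Rates span 15–1000 g ai/ha, delivered in acetone at 187 l/ha. For post-emergence treatments, plants have 2–3 leaves and the spray carries 0.25% v/v non-ionic surfactant.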

[16] = test system: green foxtail (Setaria viridis, SETVI); assay: as above; conditions: post-emerge, 14 days after application, rating scale 0-100
How it was run: as §3

[17] = test system: lambsquarters (Chenopodium album, CHEAL); assay: as above; conditions: post-emerge, 14 days after application, rating scale 0-100
How it was run: as §3

[18] = test system: ivyleaf morningglory (Ipomoea hederacea, IPOHE); assay: as above; conditions: post-emerge, 14 days after application, rating scale 0-100
How it was run: as §3

[19] = test system: large crabgrass (Digitaria sanguinalis, DIGSA); assay: as above; conditions: post-emerge, 14 days after application, rating scale 0-100
How it was run: as §3

[20] = test system: redroot pigweed (Amaranthus retroflexus, AMARE); assay: as above; conditions: post-emerge, 14 days after application, rating scale 0-100
How it was run: as §3

[21] = test system: johnsongrass (Sorghum halepense, SORHA); assay: as above; conditions: post-emerge, 14 days after application, rating scale 0-100
How it was run: as §3

[22] = test system: sicklepod (Cassia obtusifolia, CASOB); assay: as above; conditions: post-emerge, 14 days after application, rating scale 0-100
How it was run: as §3

[23] = test system: velvetleaf (Abutilon theophrasti, ABUTH); assay: as above; conditions: post-emerge, 14 days after application, rating scale 0-100
How it was run: as §3

[24] = test system: barnyardgrass (Echinochloa crus-galli, ECHCG); assay: as above; conditions: post-emerge, 14 days after application, rating scale 0-100
How it was run: as §3

COc1c(Cl)cc(F)c(-n2c(=O)cc(C(F)(F)F)n(C)c2=O)c1N(C(=O)c1ccc([N+](=O)[O-])cc1)C(=O)c1ccc([N+](=O)[O-])cc1 [2-69]
Pre-emerge Herbicidal Activity, phytotoxicity rating (0-100), AMARE ([1]; 63 g ai/ha): 90 | Pre-emerge Herbicidal Activity, phytotoxicity rating (0-100), AMARE ([1]; 250 g ai/ha): 100 | phytotoxicity rating CORN ([2]; 63 g ai/ha): 0 | phytotoxicity rating CORN ([2]; 250 g ai/ha): 0 | phytotoxicity rating RICE ([3]; 63 g ai/ha): 0 | phytotoxicity rating RICE ([3]; 250 g ai/ha): 0 | Pre-emerge phytotoxicity rating (0-100), crop damage, CORN ([4]; 63 g ai/ha): 0 | Pre-emerge phytotoxicity rating (0-100), crop damage, CORN ([4]; 250 g ai/ha): 10 | Pre-emerge phytotoxicity rating (0-100), crop damage, RICE ([5]; 63 g ai/ha): 20 | Pre-emerge phytotoxicity rating (0-100), crop damage, RICE ([5]; 250 g ai/ha): 30 | Pre-emerge Herbicidal Activity, phytotoxicity rating (0-100), AMBEL ([6]; 63 g ai/ha): 50 | Pre-emerge Herbicidal Activity, phytotoxicity rating (0-100), AMBEL ([6]; 250 g ai/ha): 60 | Pre-emerge Herbicidal Activity, phytotoxicity rating (0-100), SETVI ([7]; 63 g ai/ha): 70 | Pre-emerge Herbicidal Activity, phytotoxicity rating (0-100), SETVI ([7]; 250 g ai/ha): 95 | Pre-emerge Herbicidal Activity, phytotoxicity rating (0-100), CHEAL ([8]; 63 g ai/ha): 100 | Pre-emerge Herbicidal Activity, phytotoxicity rating (0-100), CHEAL ([8]; 250 g ai/ha): 100 | Pre-emerge Herbicidal Activity, phytotoxicity rating (0-100), IPOHE ([9]; 63 g ai/ha): 0 | Pre-emerge Herbicidal Activity, phytotoxicity rating (0-100), IPOHE ([9]; 250 g ai/ha): 40 | Pre-emerge Herbicidal Activity, phytotoxicity rating (0-100), DIGSA ([10]; 63 g ai/ha): 20 | Pre-emerge Herbicidal Activity, phytotoxicity rating (0-100), DIGSA ([10]; 250 g ai/ha): 90 | Pre-emerge Herbicidal Activity, phytotoxicity rating (0-100), SORHA ([11]; 63 g ai/ha): 0 | Pre-emerge Herbicidal Activity, phytotoxicity rating (0-100), SORHA ([11]; 250 g ai/ha): 30 | Pre-emerge Herbicidal Activity, phytotoxicity rating (0-100), CASOB ([12]; 63 g ai/ha): 0 | Pre-emerge Herbicidal Activity, phytotoxicity rating (0-100), CASOB ([12]; 250 g ai/ha): 80 | Pre-emerge Herbicidal Activity, phytotoxicity rating (0-100), ABUTH ([13]; 63 g ai/ha): 100 | Pre-emerge Herbicidal Activity, phytotoxicity rating (0-100), ABUTH ([13]; 250 g ai/ha): 100 | Pre-emerge Herbicidal Activity, phytotoxicity rating (0-100), ECHCG ([14]; 63 g ai/ha): 0 | Pre-emerge Herbicidal Activity, phytotoxicity rating (0-100), ECHCG ([14]; 250 g ai/ha): 10 | phytotoxicity rating AMBEL ([15]; 63 g ai/ha): 40 | phytotoxicity rating AMBEL ([15]; 250 g ai/ha): 30 | phytotoxicity rating SETVI ([16]; 63 g ai/ha): 0 | phytotoxicity rating SETVI ([16]; 250 g ai/ha): 0 | phytotoxicity rating CHEAL ([17]; 63 g ai/ha): 50 | phytotoxicity rating CHEAL ([17]; 250 g ai/ha): 60 | phytotoxicity rating IPOHE ([18]; 63 g ai/ha): 50 | phytotoxicity rating IPOHE ([18]; 250 g ai/ha): 40 | phytotoxicity rating DIGSA ([19]; 63 g ai/ha): 0 | phytotoxicity rating DIGSA ([19]; 250 g ai/ha): 0 | phytotoxicity rating AMARE ([20]; 63 g ai/ha): 40 | phytotoxicity rating AMARE ([20]; 250 g ai/ha): 50 | phytotoxicity rating SORHA ([21]; 63 g ai/ha): 0 | phytotoxicity rating SORHA ([21]; 250 g ai/ha): 0 | phytotoxicity rating CASOB ([22]; 63 g ai/ha): 10 | phytotoxicity rating CASOB ([22]; 250 g ai/ha): 30 | phytotoxicity rating ABUTH ([23]; 63 g ai/ha): 100 | phytotoxicity rating ABUTH ([23]; 250 g ai/ha): 100 | phytotoxicity rating ECHCG ([24]; 63 g ai/ha): 0 | phytotoxicity rating ECHCG ([24]; 250 g ai/ha): 0
